Here are results for eight compounds from patent publication US20130259884A1, “PEPTIDES” ([…] SL, priority 2010, published 2013).

Where a SMILES comes first, the peptide text is derived from it.

The nature of this data set: Water solubility of peptides when preparing stock solutions. The format is physicochemical. The following applies: stock solution in sterile distilled water or 100% DMSO; read-out: solubility of peptide (water soluble or water insoluble, dissolved in DMSO). Summed up: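 Water-soluble peptides from water stocks and insoluble ones from 100% DMSO stocks (50 mg/ml), each diluted to 2 mg/ml in water then into media. Added singly or as pools to 350,000 PBMC in anti-IL-4 ELISPOT wells at 10 μg/ml final per peptide. Identically diluted media-only controls.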
What is called solubility is the concentration that dissolves in the medium under given conditions. On to `CC[C@H](C)[C@H](NC(=O)[C@H](CC(=O)O)NC(=O)[C@H](CCC(N)=O)NC(=O)[C@@H]1CCCN1C(=O)[C@@H](NC(=O)[C@H](Cc1ccccc1)NC(=O)[C@H](CC(=O)O)NC(=O)[C@H](CO)NC(=O)[C@@H](N)CC(C)C)C(C)C)C(=O)N[C@@H](CCC(N)=O)C(=O)N[C@@H](CCCCN)C(=O)N[C@@H](CC(C)C)C(=O)N[C@@H](Cc1c[nH]c2ccccc12)C(=O)N[C@@H](Cc1c[nH]cn1)C(=O)N[C@@H](CO)C(=O)O` [Peptide 67.2, LSDFVPQDIQKLWHS] (H-LSDFVPQDIQKLWHS-OH), for which the solubility is > 2.5 mg/mL. For the compound `CC(C)C[C@H](NC(=O)[C@H](CCCNC(=N)N)NC(=O)[C@H](CC(N)=O)NC(=O)[C@@H](N)CC(=O)O)C(=O)N[C@H](C(=O)N[C@@H](CC(N)=O)C(=O)N[C@@H](Cc1c[nH]cn1)C(=O)N[C@@H](Cc1ccccc1)C(=O)N[C@H](C(=O)N[C@@H](CC(N)=O)C(=O)N[C@@H](CCC(=O)O)C(=O)N[C@@H](Cc1ccccc1)C(=O)N[C@@H](CCCCN)C(=O)N[C@@H](CCCNC(=N)N)C(=O)N[C@@H](CCCCN)C(=O)O)[C@@H](C)O)C(C)C` [Peptide 40.2, DNRLVNHFTNEFKRK] (H-DNRLVNHFTNEFKRK-OH; N-terminus and C-terminus assumed), the solubility is > 2.5 mg/mL. For `CC[C@H](C)[C@H](NC(=O)[C@@H](NC(=O)[C@@H](NC(=O)[C@H](CCCCN)NC(=O)CNC(=O)[C@@H](N)CCCCN)C(C)C)C(C)C)C(=O)N[C@H](C(=O)N[C@H](C(=O)NCC(=O)N[C@@H](C)C(=O)N[C@@H](CO)C(=O)NCC(=O)N1CCC[C@H]1C(=O)N[C@H](C(=O)NCC(=O)O)[C@@H](C)O)[C@@H](C)O)C(C)C` [Peptide 46.2, KGKVVIVTGASGPTG] (H-KGKVVIVTGASGPTG-OH) the value was > 2.5 mg/mL; for `CC(C)C[C@H](N)C(=O)N1CCC[C@H]1C(=O)N[C@@H](CC(N)=O)C(=O)N[C@@H](Cc1ccc(O)cc1)C(=O)N[C@H](C(=O)N[C@@H](CCCNC(=N)N)C(=O)N[C@@H](C)C(=O)NCC(=O)NCC(=O)N[C@@H](CC(N)=O)C(=O)NCC(=O)N1CCC[C@H]1C(=O)N[C@@H](CCCCN)C(=O)N[C@@H](CC(=O)O)C(=O)N[C@@H](Cc1ccccc1)C(=O)O)C(C)C` [Peptide L6-5.01, LPNYVRAGGNGPKDF] (H-LPNYVRAGGNGPKDF-OH), > 2.5 mg/mL; for `CC(C)C[C@H](NC(=O)[C@H](C)NC(=O)[C@H](CCCNC(=N)N)NC(=O)[C@H](C)N)C(=O)N[C@@H](CCCNC(=N)N)C(=O)N[C@@H](CCCNC(=N)N)C(=O)N[C@@H](CC(C)C)C(=O)N[C@@H](CCCNC(=N)N)C(=O)N[C@H](C(=O)N[C@@H](C)C(=O)N[C@@H](CS)C(=O)N[C@@H](CCC(=O)O)C(=O)N[C@@H](CCCNC(=N)N)C(=O)N[C@@H](C)C(=O)N[C@@H](CCCCN)C(=O)O)[C@@H](C)O` [Peptide 41.2, ARALRRLRTACERAK] (H-ARALRRLRTACERAK-OH; N-terminus and C-terminus assumed), > 2.5 mg/mL. For `CC(C)C[C@H](NC(=O)[C@H](CC(N)=O)NC(=O)[C@H](C)NC(=O)[C@H](CC(C)C)NC(=O)[C@H](CC(C)C)NC(=O)[C@H](CO)NC(=O)[C@H](Cc1ccccc1)NC(=O)[C@H](C)NC(=O)[C@@H](NC(=O)[C@H](CCCCN)NC(=O)[C@H](Cc1ccc(O)cc1)NC(=O)CNC(=O)[C@H](CC(C)C)NC(=O)[C@@H]1CCCN1C(=O)[C@@H](N)C(C)C)[C@@H](C)O)C(=O)O` [Peptide 66.3.1, VPLGYKTAFSLLANL] (H-VPLGYKTAFSLLANL-OH) the value was < 2.5 mg/mL. Take `CC[C@H](C)[C@H](NC(=O)[C@H](Cc1ccc(O)cc1)NC(=O)[C@H](C)NC(=O)[C@H](CC(=O)O)NC(=O)[C@H](C)NC(=O)[C@@H](NC(=O)CNC(=O)[C@H](CCC(N)=O)NC(=O)[C@@H](NC(=O)[C@@H](NC(=O)[C@H](Cc1ccccc1)NC(=O)[C@H](CC(=O)O)NC(=O)[C@H](CCCCN)NC(=O)[C@@H]1CCCN1)C(C)C)C(C)C)C(C)C)C(=O)N[C@H](C(=O)O)[C@@H](C)O` [Peptide 38.2.1, PKDFVVQGVADAYIT] (H-PKDFVVQGVADAYIT-OH): the solubility is < 2.5 mg/mL. For `CC(C)C[C@H](NC(=O)[C@H](C)NC(=O)[C@H](CCCCN)NC(=O)[C@H](CC(C)C)NC(=O)[C@H](CCCCN)NC(=O)[C@H](CCC(N)=O)NC(=O)[C@H](Cc1ccc(O)cc1)NC(=O)[C@@H](NC(=O)[C@H](CCC(=O)O)NC(=O)[C@H](C)N)C(C)C)C(=O)N[C@@H](C)C(=O)N[C@@H](CCCCN)C(=O)N[C@@H](CCCCN)C(=O)N[C@H](C(=O)N[C@@H](Cc1ccc(O)cc1)C(=O)O)[C@@H](C)O` [Peptide 60.2, AEVYQKLKALAKKTY] (H-AEVYQKLKALAKKTY-OH) the value was > 2.5 mg/mL.
